The source of these data is paper PMC10119930, “Dual Molecules Targeting 5-HT6 and GABA-A Receptors as a New Approach to Combat Depression Associated with Neuroinflammation” (ACS Chemical Neuroscience, 2023).

The target of data set [1] is muscimol site of the GABA-A receptor. As to the kind of experiment: Radioligand binding assay for GABA-A receptor ([3H]muscimol displacement, rat brain homogenate). The conditions noted are these: competitive replacement of [3H]muscimol; ±S.E.M. How it is done:
The study was acquired according to the earlier protocols.[39] The rats’ brains were homogenized and prepared accurately according to the previous protocol.[39] On the day of the study, brain homogenates were thawed at room temperature and “diluted” in 20 volumes of ice-cold 50 mM Tris-HCl buffer (pH 7.4) and centrifuged (20.000g, 30 min, 0–4 °C). The assay was performed directly on 96-well microplates, which contained 50 mM Tris-HCl buffer (pH 7.4) in a total volume of 300 μL. Reaction mix included 240 μL of the brain tissue suspension, 30 μL of [^3H]-muscimol, and 30 μL solution of tested compounds (administrated at various concentrations: 10^–10–10^–5 M). […] The 96-well microplates containing the reaction mix were incubated for 10 min at 0 °C, followed by rapid filtration over glass fiber filters FilterMate B (PerkinElmer, USA) using the Harvester-96 MACH III FM (Tomtec, USA). The filter mats were dried using a microwave and then placed inside a plastic bag (PerkinElmer, USA). After that, they were soaked in 10 mL of Ultima Gold MV liquid scintillation cocktail (PerkinElmer, USA). […] Ki values were estimated according to the Cheng and Prusoff equation. The study was performed in duplicates. The statistical analysis was performed using (GraphPad Prism, version 4.0, San Diego, CA, USA).

The nature of data set [2]: Stability under radioligand binding assay conditions (incubation with brain tissue). It counts as in vitro ADME. The conditions noted are these: after 1 h of incubation with brain tissue.
Data set [3] deals with female Wistar rats. As to the kind of experiment: Open field test in rats (locomotor activity). It counts as in vivo, rat. Details: total distance traveled: unit not given here. On the procedure:
Naïve female Wistar rats (weighing 180–200 g) were used in the study. The animals were housed in groups of three to four in standard Makrolon cages (37 cm × 21 cm × 15 cm) under strictly controlled laboratory conditions (ambient temperature 21–24 °C, relative humidity 45–65%) with a 12/12 h light–dark regime (light on at 6:00 a.m. and off at 6:00 p.m.). Animals had unrestricted access to tap water and food (typical pellets). Prior the experiment the animals were randomly appointed to the group. The behavioral studies were accomplished between 8:00 a.m. and 5:00 p.m. with the researcher blind to the study. The experiments were performed according to protocols approved by the Local Ethical Committee in Krakow (Approval Number 147/2018), Poland. Housing and experimental procedures were conducted under the European Union Directive of September 22, 2010 (2010/63/EU) and Polish legislation regarding animal studies. All efforts were made to minimize animal suffering and the number of animals used in the study.
Vortioxetine (Sigma, Germany) and the tested compounds (16 and 6) were dissolved in 10% cyclodextrin and administered ip 30 min before the test or during 14 consecutive days, with the last injection 60 min before the test. 10% cyclodextrin was administrated to control group.
A modified forced swim test was carried out according to Detke et al.[50],[51] First, the animals were individually placed inside Plexiglas cylinders, which were 40 cm high and 18 cm in diameter, filled with water at a temperature of 23–25 °C for 15 min. Afterward, the rats were transferred to a Plexiglas box and kept under a 60 W bulb for 30 min to dry. The day after, exactly 24 h later, the rats were once again placed in the cylinder, and their duration of immobility, swimming, and climbing was observed and recorded during a 5 min. The swimming behavior involved energetic movements such as horizontal swimming around the cylinder, while climbing activity referred to upward movements of the forepaws along the swim chamber’s side. Immobility was recorded when the rat only made necessary movements to keep its head above the water. For each test, a fresh water was provided. Open field test in rats: The test was conducted as previously reported by our research group.[52] The test was performed in a darkened room employing the Motor Monitor System (Campden Instruments, Ltd., U.K.). The system was equipped with two SmartFrame Open Field stations, each measuring 40 cm × 40 cm × 38 cm and consisting of 16 × 16 beams. These stations were placed inside sound-attenuating chambers and connected to a PC software using […]. The animals, belonging to either the vehicle-injected or drug-injected group, were individually positioned at the center of the station. The Motor Monitor System, which was automated, recorded the animal’s ambulation in both the X and Y axes, as well as the number of rearing and peeping episodes. Additionally, the total distance traveled by each animal during the 5 min test period was also recorded. Statistical analysis: Results are presented as the mean ± SEM values. They were estimated using one-way analysis of variance (ANOVA), followed by Newman–Keuls post hoc or unpaired two-tailed Student t test. Statistical significance was considered when p < 0.05 for differences between groups.

Setting [4] is: acute treatment, dose 3, ip 30 min prior.
[5] abbreviates: chronic treatment, dose 3, ip 14 days.

Turning to `Cc1c(OCc2ccccc2)cccc1N1CCN(CCOC(=O)CCCN)CC1.Cl.Cl` [Compound 16, 1-(2-((4-Ammoniobutanoyl)oxy)ethyl)-4-(3-(benzyloxy)-2-methylphenyl)piperazin-1-ium Dichloride], the affinity in data set [1], expressed as Ki, was 147 ± 12.7 nM. Also, the “% of the compound remaining” value in data set [2] is 98.21%. In data set [3] (setting [4]), this compound yielded a X ambulation of 221.3, a Y ambulation of 213.7, a rearing of 34.5 and a total distance traveled of 506.3. Besides, the “influence on spontaneous locomotor activity” value in data set [3] (acute, 3 mg/kg) is given as “did not observe any influence”. Besides, in data set [3] (setting [5]), the X ambulation was found to be 260.4, the Y ambulation was 255.3, the rearing worked out at 52.2 and the total distance traveled amounted to 2575. Also, in data set [3] (subchronic, 3 mg/kg), the “changes in spontaneous locomotor activity” value is “did not result in any significant changes”.
